US9119805B2, “Therapy and prevention of problem drinking” (THE UNIVERSITY OF SYDNEY, priority 2009, dated 2015)
Entries after “also recorded” stand apart in the source; their conditions may differ.

How the values were obtained:
[1] = test system: alcohol-dependent adults and non-dependent problem drinkers; assay: Human Study 2: intranasal oxytocin, alcohol self-administration; type: in vivo; details: versus placebo
Protocol: In a second clinical study in humans, the effect(s) of intranasal oxytocin therapy on alcohol self-administration are determined in a population of alcohol-dependent adults and in a population of non-dependent problem drinkers.
At least forty male and female adults are recruited from the community to the Brain and Mind Research Institute (BMRI) to participate in a laboratory based investigation looking at the impact of oxytocin on alcohol craving. Participants have a current diagnosis of alcohol dependence according to the Diagnostic and Statistical Manual of Mental Disorders, Fourth Edition (DSM-IV) as determined by the Structured Clinical Interview for the DSM-IV (SCID-IV) or are non-dependent subjects scoring higher than 8 on AUDIT. Male and female participants are chronic hazardous drinkers consuming more than 20 (females) or 25 (males) standard drinks per week (i.e., females: more than 200 g alcohol per week; males more than 250 g alcohol per week), respectively, and have not been abstinent more than 3 days per week in the 30 days preceding commencement of the trial as determined by AUDIT.
All subjects are tested for baseline SCID-IV, AUDIT, PDQ, 90-day TLFB, DASS-21, PANAS, AUQ, FTND, urine toxicology, plasma oxytocin and cortisol, liver function testing, heart rate (HR), blood pressure (BP), and ECG, and females are pregnancy-tested and their menstrual cycles determined, as described herein above for Study 2. Neuropsychological evaluations are also performed e.g., according to CANTAB. Additionally, subjects are subjected to attention bias assessment task testing, wherein attention biases to alcohol-related cues are determined using e.g., stroop and dot-probe methodology. Subjects also participate in a reward learning computer task, to assess motivation for their alcohol consumption. Based on their test results, subjects are selected for recruitment in the study.
Recruited subjects are administered placebo or oxytocin intranasally (80 IU per day: 40 IU at 9:00 am and 40 IU at 9:00 pm) over a period of 7 days, following completion of baseline measurements. Subjects are instructed on self-administration procedures. Drug administration commences on the evening of the day of the clinical and medical interview and ceases on a morning one-week later, after 14 doses have been administered. Subjects are randomized to oxytocin-receiving or placebo-receiving groups, and the groups are stratified according to gender, age, and drinking behavior. Subjects are contacted by telephone daily to confirm medication compliance and determine adverse events.
Subjects returning to the BMRI on the afternoon of the final day of testing are evaluated. Bloods for plasma oxytocin and cortisol levels are collected before commencement. A urine toxicology test and alcohol breathalyzer test are also performed, to determine whether subjects have been alcohol-free and drug-free at the time of testing. Subjects are tested according to DASS-21, PANAS, 7-day TLFB, and AUQ, and neuropsychological evaluations e.g., according to CANTAB are performed. Changes in mood, drinking behavior and neuropsychology are evaluated for both groups by comparison with baseline evaluations. Changes in smoking behavior are evaluated by FTND testing and comparison with baseline evaluations. HR and BP records over the period and at cessation are also determined and compared to baseline levels before commencement of therapy. […]

[2] = test system: rats having established patterns of pathologically-high alcohol consumption; assay: Beer and water consumption in the 2.5 hr after a single oxytocin injection in alcohol-dependent animals (Example 4, FIG. 8); type: in vivo, rat; details: 2.5 hr following 1 mg/kg IP
Protocol: FIG. 8 provides graphical representations showing total consumption (ml) of full strength beer (panel A) and water (panel B) in rats having established patterns of pathologically-high alcohol consumption over several months, in a 2.5 hr period following intraperitoneal (IP) injection with 1 mg/kg oxytocin (OXY, n=8) or saline vehicle (VEH, n=8). […] Alcohol consumption in animals treated with oxytocin was reduced in the short-term by about 25% to about 40% or about 50% or about 60%. In contrast, consumption of water was unchanged in animals receiving oxytocin or saline vehicle placebo.
Alcohol-dependent animals were provided a single injection i/p of oxytocin (1 mg/kg body weight) and their alcohol consumption levels in the 2.5 hr period following therapy were determined.

[3] = test system: Male Wistar rats; assay: Emergence test of anxiety after oxytocin pre-treatment (Example 3); type: in vivo, rat
Protocol: (§1) Male Wistar rats (n=48) were obtained from the Animal Resource Centre (ARC), Perth, Western Australia, Australia. The animals were of early adolescent age (i.e., 21 days-old) on arrival and were young adults (i.e., 33 days-old) when oxytocin therapy commenced. The animals were housed and maintained as described in the preceding examples, except that animals were moved to individual housing during chronic exposure to alcohol.
(§2) One-half of the rats (n=24) were administered 10 injections of 1 mg/kg oxytocin (1×I/P injection per day for a total of 10 days). The other half of the rats (n=24) received equivalent injections of placebo/vehicle lacking oxytocin.
(§3) At 7 days following final injection of oxytocin, all rats were tested in an emergence test of anxiety. This 5 min test measures the willingness of rats to leave a small dark hide box and emerge into a brightly lit open field. Rats normally avoid brightly lit and open spaces. Three days later, the animals were tested in social interaction tests which measure the willingness of rats to engage in social behavior during a 10 min session in a darkened arena where they meet an unknown rat that has received the same drug treatment.

[4] = test system: Male Wistar rats; assay: Social interaction test after oxytocin pre-treatment (Example 3); type: in vivo, rat
Protocol: as §1, §2, §3

[5] = test system: Male Wistar rats; assay: Home-cage free access to 4.5% ethanol beer after oxytocin prophylaxis (Example 3, FIGS. 5-7); type: in vivo, rat
Protocol: as §1, §2
A subset of the treated rats (n=8 per condition) were exposed to alcohol in the lickometer apparatus over a 10 day period. On the first day of testing, animals were exposed to a 70 min session in the lickometer during which a low-alcohol near-beer was provided at both lick tubes (Birell's Premium, containing 0.5% alcohol). On subsequent days, animals were exposed to further 70 min test sessions during which near-beer supplemented with increasing amounts of absolute ethanol were provided at both lick tubes i.e., to produce a beer comprising 1.5%, 2.5%, 3.5% and finally 4.5% ethanol. The concentration of ethanol was then maintained at 4.5% for all subsequent testing.
After 9 days of lickometer testing, the rats were given free access to 4.5% ethanol containing beer for a 24-day period in their home cages. Standard rat chow and tap water were also available in the home cages. Alcohol intakes and body weights were measured daily.

[6] = 10 x 1 mg/kg I/P, tested 7 days after final injection, versus vehicle
[7] = 10 minute social interaction test, versus vehicle
[8] = FIG. 6 panel A, start of exposure

general health ([5]; oxytocin pre-treated rats, FIG. 5 experiment): appeared healthy
SMILES: CC[C@H](C)[C@@H]1NC(=O)[C@H](Cc2ccc(O)cc2)NC(=O)[C@@H](N)CSSC[C@@H](C(=O)N2CCC[C@H]2C(=O)N[C@@H](CC(C)C)C(=O)NCC(N)=O)NC(=O)[C@H](CC(N)=O)NC(=O)[C@H](CCC(N)=O)NC1=O [oxytocin]
alcohol consumed ([1]; ad libitum drinking sessions): consume less alcohol | bias to alcohol-related cues [1]: lower bias | positive response to the alcohol primer [1]: lower levels of positive response | reward motivation for alcohol consumption [1]: reduced reward motivation | subjective craving for alcohol [1]: lower | consumption of water [2]: unchanged; also recorded: not affected | beer (alcohol) consumption ([2]; versus saline vehicle): significantly reduced beer consumption | emergence from hide into brightly-lit open field [3, 6]: greater likelihood of emergence into the open field; also recorded: emerged more rapidly | time hiding [3, 6]: reduced time hiding; also recorded: significantly less time hiding | anxiety ([3]; relative to control rats): reduced anxiety | number of social contacts [4, 7]: significantly higher numbers of social contacts; also recorded: increased numbers of social contacts | proximal time (time within one and half body lengths of another rat) [4, 7]: significantly higher; also recorded: increased time spent in close proximity | social anxiety ([4]; test animals after oxytocin therapy): decreased social anxiety | average daily intake of full strength beer ([5]; FIG. 5, final oxytocin injection about 30 days before exposure to alcohol, versus placebo): significantly reduced alcohol consumption; also recorded: consistently less alcohol intake | consumption of water ([5]; FIG. 6, same period): did not significantly modify consumption of water; also recorded: unchanged | escalation of alcohol consumption / alcohol intake ([5]; FIG. 6, 10 daily IP injections ending about 21 days before 24 days beer exposure, versus saline vehicle): significantly reduced an escalation of alcohol consumption; also recorded: consistently less alcohol intake | ethanol consumption after marginal increase ([5]; FIG. 6 panel A, over 24 days): 10-10.8 g/kg of pure ethanol per day | initial beer consumption [5, 8]: about 110 ml of beer per day | initial ethanol consumption [5, 8]: about 9 g/kg of pure ethanol per day | reduction of initial alcohol consumption ([5]; FIG. 6 panel A, versus animals without oxytocin): about 10% | total consumption of full strength beer ([5]; FIG. 7 panel A, final week of the experiment, versus saline vehicle): significantly reduced later consumption of alcohol | total water consumption ([5]; FIG. 7 panel B, final week): no significant difference in total water consumption | alcohol consumed with free access to full strength beer in home cages ([5]; FIGS. 5-7, versus placebo): consumed consistently less alcohol | body weight and food intake ([5]; oxytocin pre-treated rats versus controls, FIG. 5 experiment): same body weight and food intake as controls
